Activity calls are given as the source filed them. No cut-off for these calls is given here.
Assays:
Mus musculus [1] = experiment: Antinociceptive effect in Kunming mouse assessed as inhibition of acetic acid-induced writhing response at 20 mg/kg, sc administered 30 mins prior to acetic acid challenge measured 5 mins post injection for 15 mins; type: functional
Mus musculus [2] = experiment: Antinociceptive activity in ICR mouse assessed as reduction in licking and biting time during second phase at 10 mg/kg, ip administered 10 mins prior to formalin challenge measured for 10 to 30 mins (reference value: 159 +/- 15 s); type: functional
Mus musculus [3] = experiment: Antinociceptive effect in C57BL/6 mouse assessed as inhibition of spared nerve injury-induced neuropathic pain response at 10 to 40 mg/kg, ip measured after 5 to 7 days of recovery by Von Frey filament assay; type: functional, organism-based
Mus musculus [4] = experiment: Antinociceptive effect in Kunming mouse assessed as inhibition of acetic acid-induced writhing response at 100 mg/kg, sc administered 30 mins prior to acetic acid challenge measured 5 mins post injection for 15 mins; type: functional
Mus musculus [5] = experiment: Antinociceptive effect in Kunming mouse assessed as inhibition of acetic acid-induced writhing response at 100 mg/kg, ip administered 30 mins prior to acetic acid challenge measured 5 mins post injection for 15 mins; type: functional
Mus musculus [6] = experiment: Antinociceptive effect in Kunming mouse assessed as inhibition of acetic acid-induced writhing response at 20 mg/kg, ip administered 30 mins prior to acetic acid challenge measured 5 mins post injection for 15 mins; type: functional
Mus musculus [7] = experiment: Antinociceptive activity in ICR mouse assessed as reduction in licking and biting time during second phase at 10 mg/kg, ip administered 10 mins prior to formalin challenge measured for 10 to 30 mins (reference value: 178 +/- 19 s); type: functional
Mus musculus [8] = experiment: Antinociceptive activity in ICR mouse assessed as reduction in licking and biting time during first phase at 10 mg/kg, ip administered 10 mins prior to formalin challenge measured for 10 mins (reference value: 156 +/- 8 s); type: functional
Mus musculus [9] = experiment: Antinociceptive activity in ICR mouse assessed as reduction in licking and biting time during first phase at 20 mg/kg, ip administered 10 mins prior to formalin challenge measured for 10 mins (reference value: 156 +/- 8 s); type: functional
Mus musculus [10] = experiment: Antinociceptive activity in ICR mouse assessed as reduction in licking and biting time during second phase at 10 mg/kg, ip administered 10 mins prior to formalin challenge measured for 10 to 30 mins (reference value: 159 +/- 25 s); type: functional
Mus musculus [11] = experiment: Antinociceptive activity in ICR mouse assessed as reduction in licking and biting time during second phase at 20 mg/kg, ip administered 10 mins prior to formalin challenge measured for 10 to 30 mins (reference value: 159 +/- 25 s); type: functional
Mus musculus [12] = experiment: Antinociceptive activity in ip dosed ICR mouse assessed as reduction in licking and biting time during first phase administered 10 mins prior to formalin challenge measured for 10 mins relative to vehicle control; type: functional, organism-based
Mus musculus [13] = experiment: Antinociceptive activity in ip dosed ICR mouse assessed as reduction in licking and biting time during second phase administered 10 mins prior to formalin challenge measured for 10 to 30 mins relative to vehicle control; type: functional, organism-based
Mus musculus [14] = experiment: Antinociceptive effect in C57BL/6 mouse assessed as inhibition of spared nerve injury-induced neuropathic pain response at 10 to 20 mg/kg, ip measured after 5 to 7 days of recovery by Von Frey filament assay; type: functional, organism-based
Mus musculus [15] = experiment: Antinociceptive effect in C57BL/6 mouse assessed as inhibition of spared nerve injury-induced neuropathic pain response at 100 mg/kg, ip measured after 5 to 7 days of recovery by Von Frey filament assay; type: functional, organism-based

Compound: CCCCN1C[C@H]2[C@H](C)[C@H](OC(=O)[C@H]3[C@H](c4ccc(O)c(OC)c4)[C@H](C(=O)O[C@@H]4C[C@@H]5[C@@H](CN(CCCC)C[C@@H]5C)[C@@H]4C)[C@H]3c3ccc(O)c(OC)c3)C[C@H]2[C@@H](C)C1
- inhibition in vivo at 20 mg/kg (Mus musculus [1]): 13.1%

Compound: CCCN1C[C@H]2[C@H](C)[C@H](OC(=O)[C@H]3[C@H](c4ccc(O)c(OC)c4)[C@H](C(=O)O[C@@H]4C[C@@H]5[C@@H](CN(CCC)C[C@@H]5C)[C@@H]4C)[C@H]3c3ccc(O)c(OC)c3)C[C@H]2[C@@H](C)C1
- inhibition in vivo at 20 mg/kg (Mus musculus [1]): 48.2%

Compound: COc1cc([C@H]2[C@H](C(=O)OCC3CCN(C)CC3)[C@H](c3ccc(O)c(OC)c3)[C@H]2C(=O)OCC2CCN(C)CC2)ccc1O
- inhibition in vivo at 20 mg/kg (Mus musculus [1]): 75.7%
- Time (Mus musculus [2]): 95 s
- inhibition (Mus musculus [3]): Active

Compound: C=CCN1C[C@H]2[C@H](C)[C@H](OC(=O)[C@H]3[C@H](c4ccc(O)c(OC)c4)[C@H](C(=O)O[C@@H]4C[C@@H]5[C@@H](CN(CC=C)C[C@@H]5C)[C@@H]4C)[C@H]3c3ccc(O)c(OC)c3)C[C@H]2[C@@H](C)C1
- inhibition in vivo at 20 mg/kg (Mus musculus [1]): 70.6%

Compound: CC(=O)Oc1ccccc1C(=O)O [ASPIRIN DL-LYSINE]
- inhibition in vivo at 100 mg/kg (Mus musculus [4]): 81.9%
- inhibition in vivo at 100 mg/kg (Mus musculus [5]): 85.4%

Compound: C=C1CN(C)C[C@H]2[C@H](C)[C@H](OC(=O)[C@H]3[C@H](c4ccc(O)c(OC)c4)[C@H](C(=O)O[C@@H]4C[C@H]5C(=C)CN(C)C[C@H]5[C@@H]4C)[C@H]3c3ccc(O)c(OC)c3)C[C@@H]12
- inhibition in vivo at 20 mg/kg (Mus musculus [1]): 77.8%
- inhibition in vivo at 20 mg/kg (Mus musculus [6]): 89.4%
- Time (Mus musculus [7]): 87 s
- inhibition (Mus musculus [3]): Active

Compound: COc1cc([C@H]2[C@H](C(=O)O[C@@H]3C[C@@H]4[C@@H](CN(CC5CC5)C[C@@H]4C)[C@@H]3C)[C@H](c3ccc(O)c(OC)c3)[C@H]2C(=O)O[C@@H]2C[C@@H]3[C@@H](CN(CC4CC4)C[C@@H]3C)[C@@H]2C)ccc1O
- inhibition in vivo at 20 mg/kg (Mus musculus [6]): 88.1%

Compound: COc1cc([C@H]2[C@H](C(=O)OCCC3CCN(C)CC3)[C@H](c3ccc(O)c(OC)c3)[C@H]2C(=O)OCCC2CCN(C)CC2)ccc1O
- inhibition in vivo at 20 mg/kg (Mus musculus [1]): 22.4%

Compound: COc1cc([C@H]2[C@H](C(=O)OC3CCN(C)CC3)[C@H](c3ccc(O)c(OC)c3)[C@H]2C(=O)OC2CCN(C)CC2)ccc1O
- inhibition in vivo at 20 mg/kg (Mus musculus [1]): 41.2%

Compound: COc1cc([C@H]2[C@H](C(=O)O[C@@H]3C[C@@H]4[C@@H](CN(C)C[C@@H]4C)[C@@H]3C)[C@H](c3ccc(O)c(OC)c3)[C@H]2C(=O)O[C@@H]2C[C@@H]3[C@@H](CN(C)C[C@@H]3C)[C@@H]2C)ccc1O [INCARVILLATEINE]
- inhibition in vivo at 20 mg/kg (Mus musculus [1]): 69.2%
- inhibition in vivo at 20 mg/kg (Mus musculus [6]): 78.5%
- Time (Mus musculus [8]): 101 s
- Time (Mus musculus [9]): 51 s
- Time (Mus musculus [10]): 67 s
- Time (Mus musculus [11]): 1 s
- Activity (Mus musculus [12]): Dose-dependent effect
- Activity (Mus musculus [13]): Dose-dependent effect
- inhibition (Mus musculus [14]): Active

Compound: NCC1(CC(=O)O)CCCCC1
- inhibition (Mus musculus [15]): Active

Compound: COc1cc([C@H]2[C@H](C(=O)O[C@@H]3C[C@@H]4[C@@H](CN(C)C[C@H]4C)[C@@H]3C)[C@H](c3ccc(O)c(OC)c3)[C@H]2C(=O)O[C@@H]2C[C@@H]3[C@@H](CN(C)C[C@H]3C)[C@@H]2C)ccc1O
- inhibition in vivo at 20 mg/kg (Mus musculus [1]): 65.1%
